Consider six compounds from patent US20240341307A1, “FUNGICIDAL COMPOSITIONS” (SYNGENTA CROP PROTECTION AG, priority 2021, published 2024).

SMILES strings stand for the structures.

Common to all, as to type: cell-based
Common to all, as to conditions: alone

The test system of assay [1] is Glomerella lapenarium Syn. Colletotrichum lapenarium. Put plainly: Glomerella lapenarium syn. Colletotrichum lapenarium (anthracnose of cucurbits) growth inhibition in nutrient broth, photometric after 72 hrs at 620 nm. The text has this: A synergistic effect exists whenever the action of an active ingredient combination is greater than the sum of the actions of the individual components. The action to be expected E for a given active ingredient combination obeys the so-called COLBY formula and can be calculated as follows (COLBY, S. R. “Calculating synergistic and antagonistic responses of herbicide combination”. Weeds, Vol. 15, pages 20-22; 1967): • ppm=milligrams of active ingredient (=a.i.) per liter of spray mixture • X=% action by active ingredient A) using p ppm of active ingredient • Y=% action by active ingredient B) using q ppm of active ingredient. According to COLBY, the expected (additive) action of active ingredients A)+B) using p+q ppm of active ingredient is If the action actually observed (O) is greater than the expected action (E), then the action of the combination is super-additive, i.e. there is a synergistic effect. In mathematical terms, synergism corresponds to a positive value for the difference of (O-E). In the case of purely complementary addition of activities (expected activity), said difference (O-E) is zero. A negative value of said difference (O-E) signals a loss of activity compared to the expected activity. Glomerella lapenarium Syn. Colletotrichum lapenarium (Anthracnose of Cucurbits): Conidia of the fungus from cryogenic storage were directly mixed into nutrient broth ([…] potato dextrose broth). A DMSO solution of the test compounds was placed into a microtiter plate (96-well format) and the nutrient broth containing the fungal spores was added to it. The test plates were incubated at 24 C and the inhibition of growth was determined photometrically after 72 hrs at 620 nm.

Another assay has as its system Alternaria solani. Briefly: Alternaria solani (early blight tomato/potato) growth inhibition in nutrient broth, microtiter plate, photometric after 48 hrs. The text has this:
A synergistic effect exists whenever the action of an active ingredient combination is greater than the sum of the actions of the individual components. The action to be expected E for a given active ingredient combination obeys the so-called COLBY formula and can be calculated as follows (COLBY, S. R. “Calculating synergistic and antagonistic responses of herbicide combination”. Weeds, Vol. 15, pages 20-22; 1967): • ppm=milligrams of active ingredient (=a.i.) per liter of spray mixture • X=% action by active ingredient A) using p ppm of active ingredient • Y=% action by active ingredient B) using q ppm of active ingredient. According to COLBY, the expected (additive) action of active ingredients A)+B) using p+q ppm of active ingredient is If the action actually observed (O) is greater than the expected action (E), then the action of the combination is super-additive, i.e. there is a synergistic effect. In mathematical terms, synergism corresponds to a positive value for the difference of (O-E). In the case of purely complementary addition of activities (expected activity), said difference (O-E) is zero. A negative value of said difference (O-E) signals a loss of activity compared to the expected activity. Alternaria solani (Early Blight Tomato/Potato): Conidia of the fungus from cryogenic storage were directly mixed into nutrient broth (PDB potato dextrose broth). A DMSO solution of the test compounds was placed into a microtiter plate (96-well format) and the nutrient broth containing the fungal spores was added to it. The test plates were incubated at 24 C and the inhibition of growth was determined photometrically after 48 hrs.

In the next assay the test system is Botrytis cinerea. Briefly: Botrytis cinerea (gray mould) growth inhibition in nutrient broth, microtiter plate, photometric after 72 hrs. The text has this: A synergistic effect exists whenever the action of an active ingredient combination is greater than the sum of the actions of the individual components. The action to be expected E for a given active ingredient combination obeys the so-called COLBY formula and can be calculated as follows (COLBY, S. R. “Calculating synergistic and antagonistic responses of herbicide combination”. Weeds, Vol. 15, pages 20-22; 1967): • ppm=milligrams of active ingredient (=a.i.) per liter of spray mixture • X=% action by active ingredient A) using p ppm of active ingredient • Y=% action by active ingredient B) using q ppm of active ingredient. According to COLBY, the expected (additive) action of active ingredients A)+B) using p+q ppm of active ingredient is If the action actually observed (O) is greater than the expected action (E), then the action of the combination is super-additive, i.e. there is a synergistic effect. In mathematical terms, synergism corresponds to a positive value for the difference of (O-E). In the case of purely complementary addition of activities (expected activity), said difference (O-E) is zero. A negative value of said difference (O-E) signals a loss of activity compared to the expected activity. Botrytis cinerea (GRAY Mould): Conidia of the fungus from cryogenic storage were directly mixed into nutrient broth ([…] potato dextrose broth). A DMSO solution of the test compounds was placed into a microtiter plate (96-well format) and the nutrient broth containing the fungal spores was added to it. The test plates were incubated at 24 C and the inhibition of growth was determined photometrically after 72 hrs.

Assay [2] concerns Mycosphaerella arachidis syn. Cercospora arachidicola. Briefly: Mycosphaerella arachidis syn. Cercospora arachidicola (brown leaf spot of peanut) growth inhibition in nutrient broth, photometric after 5-6 days at 620 nm. The text has this: A synergistic effect exists whenever the action of an active ingredient combination is greater than the sum of the actions of the individual components. The action to be expected E for a given active ingredient combination obeys the so-called COLBY formula and can be calculated as follows (COLBY, S. R. “Calculating synergistic and antagonistic responses of herbicide combination”. Weeds, Vol. 15, pages 20-22; 1967): • ppm=milligrams of active ingredient (=a.i.) per liter of spray mixture • X=% action by active ingredient A) using p ppm of active ingredient • Y=% action by active ingredient B) using q ppm of active ingredient. According to COLBY, the expected (additive) action of active ingredients A)+B) using p+q ppm of active ingredient is If the action actually observed (O) is greater than the expected action (E), then the action of the combination is super-additive, i.e. there is a synergistic effect. In mathematical terms, synergism corresponds to a positive value for the difference of (O-E). In the case of purely complementary addition of activities (expected activity), said difference (O-E) is zero. A negative value of said difference (O-E) signals a loss of activity compared to the expected activity. Mycosphaerella arachidis syn. Cercospora arachidicola (Brown leaf spot of peanut): Conidia of the fungus from cryogenic storage were directly mixed into nutrient broth (PDB potato dextrose broth). A DMSO solution of the test compounds was placed into a microtiter plate (96-well format) and the nutrient broth containing the fungal spores was added to it. The test plates were incubated at 24 C and the inhibition of growth was determined photometrically after 5-6 days at 620 nm

In a further assay the test system is Sclerotinia sclerotiorum. Briefly: Sclerotinia sclerotiorum (cottony rot, white mold) growth inhibition in nutrient broth, photometric after 72 hrs at 620 nm. The source says: A synergistic effect exists whenever the action of an active ingredient combination is greater than the sum of the actions of the individual components. The action to be expected E for a given active ingredient combination obeys the so-called COLBY formula and can be calculated as follows (COLBY, S. R. “Calculating synergistic and antagonistic responses of herbicide combination”. Weeds, Vol. 15, pages 20-22; 1967): • ppm=milligrams of active ingredient (=a.i.) per liter of spray mixture • X=% action by active ingredient A) using p ppm of active ingredient • Y=% action by active ingredient B) using q ppm of active ingredient. According to COLBY, the expected (additive) action of active ingredients A)+B) using p+q ppm of active ingredient is If the action actually observed (O) is greater than the expected action (E), then the action of the combination is super-additive, i.e. there is a synergistic effect. In mathematical terms, synergism corresponds to a positive value for the difference of (O-E). In the case of purely complementary addition of activities (expected activity), said difference (O-E) is zero. A negative value of said difference (O-E) signals a loss of activity compared to the expected activity. Sclerotinia sclerotiorum (Cottony Rot, White Mold, Etc.) Mycelial fragments of the fungus prepared from a fresh liquid culture were directly mixed into nutrient broth (PDB potato dextrose broth). A DMSO solution of the test compounds was placed into a microtiter plate (96-well format) and the nutrient broth containing the fungal spores was added to it. The test plates were incubated at 24 C and the inhibition of growth was determined photometrically after 72 hrs at 620 nm.

As for `O=C(Nc1ccccc1F)c1ccc(-c2noc(C(F)(F)F)n2)cc1` [Flufenoxadiazam, flufenoxadiazam], the “Observed Activity (%)” value in assay [1] (0.08 ppm), in assay [1] (0.246 ppm), in assay [1] (0.74 ppm) and in assay [1] (2.22 ppm) was 20% in each case.

As for `CCC(=O)Oc1c(OC)ccnc1C(=O)N[C@@H](C)C(=O)O[C@@H](C)[C@@H](C)c1ccccc1C` [Metarylpicoxamid, metarylpicoxamid], the “Observed Activity (%)” value with Alternaria solani (0.22 ppm) is 20%; with Alternaria solani (0.66 ppm), 50%; in the assay with Alternaria solani (2 ppm), 50%; in the assay with Botrytis cinerea (0.0246 ppm), 0%; with Botrytis cinerea (0.074 ppm), 20%; with Botrytis cinerea (0.22 ppm), 50%. The “Observed Activity (%)” value in the assay on Botrytis cinerea (0.66 ppm) worked out at 70%; in assay [1] (2 ppm), 70%; in assay [2] (0.0246 ppm), 20%.

As for `CON(C(=O)c1cn(C)nc1C(F)F)C(C)Cc1c(Cl)cc(Cl)cc1Cl` (stereo not drawn) [Pydiflumetofen, pydiflumetofen], the “Observed Activity (%)” value with Alternaria solani (0.0008 ppm) came out at 0%; in the assay on Alternaria solani (0.00246 ppm) it was 50%; in the assay on Alternaria solani (0.0074 ppm), 70%; in the assay on Botrytis cinerea (0.0008 ppm), 0%; with Botrytis cinerea (0.00246 ppm), 20%; in the assay with Botrytis cinerea (0.0074 ppm), 50%. For the same compound, the “Observed Activity (%)” value with Botrytis cinerea (0.022 ppm) is given as 70%.

For `N#Cc1ccc(Oc2ccc(C(F)(F)C(O)(Cn3[nH]cnc3=S)c3ccc(F)cc3F)nc2)cc1` (stereo not drawn) [Fluoxytioconazole, fluoxytioconazole], the “Observed Activity (%)” value in the assay with Botrytis cinerea (0.22 ppm) is listed as 0%; in the assay with Botrytis cinerea (0.66 ppm), 0%; in the assay on Botrytis cinerea (2 ppm), 0%; with Botrytis cinerea (6 ppm), 20%.

For `CCS(=O)(=O)c1cc(C(F)(F)F)ccc1C(=O)N(C(C)=O)c1ccc(OC(F)(F)F)cc1C(=O)OC` [Compound A-1.1, Methyl 2-[acetyl-[2-ethylsulfonyl-4-(trifluoromethyl)benzoyl]amino]-5-(trifluoromethoxy)benzoate], the inhibition at 1 ppm with Alternaria solani (Alternaria solani, 1 ppm, read-out: Observed Activity (%)) came to 50%; in the assay with Botrytis cinerea (Botrytis cinerea, 1 ppm, read-out: Observed Activity (%)), 50%; in assay [1] (Colletotrichum, 1 ppm, read-out: Observed Activity (%)) it was 0%. Further, the inhibition at 2 ppm in the assay on Alternaria solani (Alternaria solani, 2 ppm, read-out: Observed Activity (%)) worked out at 50%; with Botrytis cinerea (Botrytis cinerea, 2 ppm, read-out: Observed Activity (%)) it was 50%; in assay [1] (Colletotrichum, 2 ppm, read-out: Observed Activity (%)), 0%. Also, the inhibition at 10 ppm amounted to 50% in the assay with Botrytis cinerea (Botrytis cinerea, 10 ppm, read-out: Observed Activity (%)); 70% in assay [1] (Colletotrichum, 10 ppm, read-out: Observed Activity (%)); 0% in assay [2] (Mycosphaerella arachidis, 10 ppm, read-out: Observed Activity (%)); 0% with Sclerotinia sclerotiorum (Sclerotinia sclerotiorum, 10 ppm, read-out: Observed Activity (%)). The inhibition at 20 ppm in the assay with Botrytis cinerea (Botrytis cinerea, 20 ppm, read-out: Observed Activity (%)) came out at 50%; in assay [1] (Colletotrichum, 20 ppm, read-out: Observed Activity (%)) it was 70%; in assay [2] (Mycosphaerella arachidis, 20 ppm, read-out: Observed Activity (%)) it was 0%; in the assay on Sclerotinia sclerotiorum (Sclerotinia sclerotiorum, 20 ppm, read-out: Observed Activity (%)), 0%.

Take `O=C(NC1CCC1c1ccc(Cl)cc1Cl)c1cccnc1C(F)(F)F` (stereo in doubt) [Cyclobutrifluram, cyclobutrifluram]: the “Observed Activity (%)” value was found to be 0% with Alternaria solani (0.0008 ppm); 20% in the assay on Alternaria solani (0.00246 ppm); 50% in the assay with Alternaria solani (0.0074 ppm); 70% in the assay with Alternaria solani (0.022 ppm); 20% in the assay on Botrytis cinerea (0.066 ppm); 20% in the assay on Botrytis cinerea (0.074 ppm). For the same compound, the “Observed Activity (%)” value in the assay with Botrytis cinerea (0.2 ppm) turned out to be 50%; with Botrytis cinerea (0.22 ppm), 50%; in the assay on Botrytis cinerea (0.66 ppm) it was 70%; with Sclerotinia sclerotiorum (0.074 ppm) it was 20%.
